Like-named read-outs stand apart in the source and are kept apart here.
Key:
Format in all cases: cell-based, Hepatitis C virus
[1] = system: HCV genotype 1a H77 strain subgenomic luciferase replicon; assay: HCV replicon assay, genotype 1a
Experimental: (§1) The HCV luciferase replicon assay measures the ability of a test compound to inhibit HCV replication in cell culture after 3 days of treatment in a human hepatoma cell line (Huh-7) bearing an HCV replicon containing a luciferase-neomycin phosphotransferase fusion gene. The inhibition of HCV replication was measured by quantification of luciferase protein expression. Briefly, Huh-7 cells containing either the HCV genotype 1a H77 strain or genotype 1b Con1 strain subgenomic luciferase replicon (H1a-luc or Zluc, respectively) were grown in DMEM containing glucose, L-glutamine and sodium pyruvate, 10% fetal bovine serum (FBS), 100 IU/mL penicillin, 100 μg/mL streptomycin, 2 mM GlutaMAX, non-essential amino acids and 0.25 (H1a-luc) or 0.5 (Zluc) mg/mL G418. GlutaMAX was obtained from Invitrogen, Corp.; all other media reagents were obtained from Mediatech, Inc. For dose-response testing, the cells were seeded in 96-well plates at 1×10^4 (H1a-luc) or 7.5×10^3 (Zluc) cells/well in a volume of 50 μL, and incubated at 37° C./5% CO2. Three hours after plating, 50 μL of ten 5-fold serial dilutions of compound were added, and cell cultures were incubated at 37° C./5% CO2 for 72 hours. In all cases, Huh-7 cells lacking the HCV replicon served as negative control. To assess luciferase expression, the media/compound was removed from the plates and ONE-glo Luciferase assay reagent (Promega) was added to each well. The assay plates were shaken for 3 minutes at room temperature and luciferase activity for each well was measured with a 1 sec read time on the Victor^3V multilabel counter using a 700 nm cut-off filter (Perkin Elmer). EC50 values were calculated from dose response curves from the resulting best-fit equations determined by Microsoft Excel and XLfit 4.1 software.

[2] = system: HCV 1aY93H mutant replicon; assay: HCV replicon assay, genotype 1a Y93H mutant
Experimental: General procedure: The luciferase replicon transient transfection assay measures the ability of a test compound to inhibit the replication of a transiently-transfected HCV luciferase-bearing wild-type or mutant replicon in cured human hepatoma cells (Huh7.5). The inhibition of HCV replication was measured by quantification of luciferase protein expression. This assay has been validated using a panel of genotype 1a and 1b replicons bearing mutations known to be associated with resistance to BMS-790052. Briefly, subconfluent Huh7.5 cells were electroporated with 10 μg of wild-type or mutant luciferase-bearing HCV replicon RNA. The cells were then seeded in 96-well opaque white plates at 3×10^4 cells/well in 150 μL/well and incubated for 4 hrs at 37° C./5% CO2. Ten 1:5 serial dilutions of each test compound were made in media (DMEM containing glucose, L-glutamine and sodium pyruvate, 10% fetal bovine serum, 100 IU/mL penicillin, 100 μg/mL streptomycin, 2 mM GlutaMAX, and 1×MEM non-essential amino acids (Mediatech, Inc. and Invitrogen Corp.)) at concentrations that were 4× higher than the final concentrations to be tested and 50 μL/well was added to the transfected cells. Untreated, mock-transfected cells served as a negative control of luciferase expression. The plates were incubated at 37° C./5% CO2 for 4 days whereupon the media was removed and 50 μL of ONE-glo luciferase substrate (Promega) was added to each well. The plates were agitated on a rotating platform at room temperature for 3 min and read in a Victor^3V microplate reader (Perkin-Elmer) using a 700 nm cut-off filter with a 1 sec read time. EC50 values were calculated from dose response curves from the resulting best-fit equations determined by Microsoft Excel and XLfit 4.1 software.

[3] = system: HCV genotype 1b Con1 strain subgenomic luciferase replicon; assay: HCV replicon assay, genotype 1b
Experimental: as §1

HCV 2b = assay: HCV replicon assay, genotype 2b
[4] = system: HCV genotype 3a NS5A within the 1b-replicon; assay: HCV replicon assay, genotype 3a (NS5A intergenotypic stable cell line)
From the text: The nucleotide sequences of the NS5A region of genotype 2a (GenBank Accession # AB047639), genotype 3a (GenBank Accession # D17763), and genotype 4a (GenBank Accession # DQ418788) were synthesized by an outside vendor. The NS5A region of each of these genotypes included the first 11 amino acids of the protease recognition sequence of genotype 1b, as well as the last 10 amino acids of genotype 1b. The NS5A gene cassettes were excised with site specific restriction endonucleases and ligated into a ZS11-luciferase genotype 1b backbone (backbone contains the genotype 1b NS3 protease, NS4a, NS4b, and NS5b coding regions) with similarly cut restriction enzyme sites. Thus, the newly constructed plasmid contains a genotype 2a-, 3a- or 4a-specific NS5A gene within the 1b-replicon.
These new intergenotypic plasmids were used to establish stable cell lines. RNA was generated from the NS5A intergenotypic plasmids and used in conjunction with a lipofectin reagent to transfect a cured Huh7 cell line. Transfected cells were selected for with G418. After selection has occurred the stable cell lines were propagated, tested for luciferase activity, and RT-PCR with genotype specific primers (either 1a, 2a, 3a, or 4a). Stable cell lines containing the intergenotypic replicon were then fully sequenced and analyzed for proper expression of NS3, NS5A and NS5B proteins.
Drug titration analysis was performed using the luciferase replicon assay described herein.
as §1

[5] = Hepatitis C virus, read-out: 1a IC50 (nM), HCV genotype 1a
[6] = Hepatitis C virus, read-out: 1aY93H IC50 (nM), HCV genotype 1a, Y93H mutant
[7] = Hepatitis C virus, read-out: 2b IC50 (nM), HCV genotype 2b
[8] = Hepatitis C virus, read-out: 3a IC50 (nM), HCV genotype 3a
[9] = read-out: 1a IC50, HCV genotype 1a
[10] = read-out: 1aY93H IC50, HCV genotype 1a, Y93H mutant
[11] = read-out: 2b IC50, HCV genotype 2b
[12] = read-out: 3a IC50, HCV genotype 3a

SMILES	IC50 [1, 5]	IC50 [2, 6]	IC50 ([3]; Hepatitis C virus)	IC50 (HCV 2b; [7])	IC50 [4, 8]	IC50 [1, 9]	IC50 [2, 10]	IC50 [3]	IC50 (HCV 2b; [11])	IC50 [4, 12]
COC(=O)N[C@H](C(=O)N1CCC[C@H]1c1ncc(-c2ccc3c(ccc4oc5ccc(-c6cnc([C@@H]7CCCN7C(=O)[C@@H](NC(=O)OC)C(C)C)[nH]6)cc5c(=O)c43)c2)[nH]1)C(C)C [Compound 25, methyl [(1S)-1-({(2S)-2-[5-(10-{2-[(2S)-1-{(2S)-2-[(methoxycarbonyl)amino]-3-methylbutanoyl}pyrrolidin-2-yl]-1H-imidazol-5-yl}-12-oxo-12H-benzo[a]xanthen-3-yl)-1H-imidazol-2-yl]pyrrolidin-1-yl}carbonyl)-2-methylpropyl]carbamate]	0.167 nM	≥ 100 nM	0.107 nM	≥ 100 nM	≥ 1 nM	–	–	–	–	–
COC(=O)N[C@H](C(=O)N1CCC[C@H]1c1ncc(-c2ccc3c(c2)Oc2ccc4cc(-c5cnc([C@@H]6CCCN6C(=O)[C@@H](NC(=O)OC)C(C)C)[nH]5)ccc4c2C3C)[nH]1)C(C)C (single isomer, unassigned) [Compound 3]	–	–	–	–	–	0.0022 nM	7.15 nM	0.0016 nM	1.95 nM	0.721 nM
COC(=O)N[C@H](C(=O)N1CCC[C@H]1c1ncc(-c2ccc3c(c2)Oc2ccc4cc(-c5cnc([C@@H]6CCCN6C(=O)[C@@H](NC(=O)OC)C6CCOCC6)[nH]5)ccc4c2C3C)[nH]1)C1CCOCC1 (single isomer, unassigned) [Compound 12]	–	–	–	–	–	0.0045 nM	0.548 nM	0.0056 nM	0.495 nM	0.055 nM
COC(=O)N[C@H](C(=O)N1CCC[C@H]1c1ncc(-c2ccc3c(c2)Oc2ccc4cc(-c5cnc([C@@H]6CCCN6C(=O)[C@@H](NC(=O)OC)C6CCOCC6)[nH]5)ccc4c2C3(C)C)[nH]1)C1CCOCC1 [Compound 13, dimethyl [(12,12-dimethyl-12H-benzo[a]xanthene-3,9-diyl)bis{1H-imidazole-5,2-diyl(2S)pyrrolidine-2,1-diyl[(1S)-2-oxo-1-(tetrahydro-2H-pyran-4-yl)ethane-2,1-diyl]}]biscarbamate]	0.0023 nM	0.682 nM	0.004 nM	0.254 nM	0.084 nM	–	–	–	–	–
COC(=O)N[C@H](C(=O)N1C[C@H](F)C[C@H]1c1ncc(-c2ccc3c(ccc4oc5ccc(-c6cnc([C@@H]7C[C@@H](F)CN7C(=O)[C@@H](NC(=O)OC)C(C)C)[nH]6)cc5c(=O)c43)c2)[nH]1)C(C)C [Compound 27, methyl [(1S)-1-({(2S,4R)-4-fluoro-2-[5-(10-{2-[(2S,4R)-4-fluoro-1-{(2S)-2-[(methoxycarbonyl)amino]-3-methylbutanoyl}pyrrolidin-2-yl]-1H-imidazol-5-yl}-12-oxo-12H-benzo[a]xanthen-3-yl)-1H-imidazol-2-yl]pyrrolidin-1-yl}carbonyl)-2-methylpropyl]carbamate]	≥ 1 nM	96.6 nM	0.591 nM	≥ 100 nM	≥ 1 nM	–	–	–	–	–
COC(=O)N[C@H](C(=O)N1C[C@H](F)C[C@H]1c1ncc(-c2ccc3c(ccc4oc5cc(-c6cnc([C@@H]7C[C@@H](F)CN7C(=O)[C@@H](NC(=O)OC)C(C)C)[nH]6)ccc5c(=O)c43)c2)[nH]1)C(C)C [Compound 28, methyl [(1S)-1-({(2S,4R)-4-fluoro-2-[5-(9-{2-[(2S,4R)-4-fluoro-1-{(2S)-2-[(methoxycarbonyl)amino]-3-methylbutanoyl}pyrrolidin-2-yl]-1H-imidazol-5-yl}-12-oxo-12H-benzo[a]xanthen-3-yl)-1H-imidazol-2-yl]pyrrolidin-1-yl}carbonyl)-2-methylpropyl]carbamate]	0.0292 nM	1.18 nM	0.00445 nM	89.8 nM	≥ 1 nM	–	–	–	–	–
CCC1(CC)c2ccc(-c3cnc([C@H]4CCCN4C(=O)[C@@H](NC(=O)OC)C4CCOCC4)[nH]3)cc2Oc2ccc3cc(-c4cnc([C@H]5CCCN5C(=O)[C@H](NC(=O)OC)C5CCOCC5)[nH]4)ccc3c21 [Compound 16, methyl [(1R)-2-[(2R)-2-{5-[12,12-diethyl-9-(2-{(2R)-1-[(2S)-2-[(methoxycarbonyl)amino]-2-(tetrahydro-2H-pyran-4-yl)acetyl]pyrrolidin-2-yl}-1H-imidazol-5-yl)-12H-benzo[a]xanthen-3-yl]-1H-imidazol-2-yl}pyrrolidin-1-yl]-2-oxo-1-(tetrahydro-2H-pyran-4-yl)ethyl]carbamate]	0.0036 nM	0.072 nM	0.0044 nM	0.032 nM	0.015 nM	–	–	–	–	–
COC(=O)N[C@H](C(=O)N1CCC[C@H]1c1ncc(-c2ccc3c(c2)Oc2ccc4cc(-c5cnc([C@@H]6CCCN6C(=O)[C@@H](NC(=O)OC)C6CCOCC6)[nH]5)ccc4c2C3C)[nH]1)C1CCOCC1 (single isomer, unassigned) [Compound 11]	0.0037 nM	0.391 nM	0.0044 nM	–	0.038 nM	–	–	–	0.016 nM	–
COC(=O)N[C@H](C(=O)N1CCC[C@H]1c1ncc(-c2ccc3c(ccc4oc5cc(-c6cnc([C@@H]7CCCN7C(=O)[C@@H](NC(=O)OC)C(C)C)[nH]6)ccc5c(=O)c43)c2)[nH]1)C(C)C [Compound 33, methyl [(1S)-1-({(2S)-2-[5-(9-{2-[(2S)-1-{(2S)-2-[(methoxycarbonyl)amino]-3-methylbutanoyl}pyrrolidin-2-yl]-1H-imidazol-5-yl}-12-oxo-12H-benzo[a]xanthen-3-yl)-1H-imidazol-2-yl]pyrrolidin-1-yl}carbonyl)-2-methylpropyl]carbamate]	0.003 nM	18.4 nM	0.00333 nM	14.1 nM	≥ 1 nM	–	–	–	–	–
